From PubChem BioAssay (NCI)
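Dose response: 5 concentrations. Exposure: 48 h. Format: 96-well plates. Endpoint: linear interpolation; highest concentration if not reached. Here, GI50 denotes the concentration required for 50% inhibition of growth. TGI: total growth inhibition.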

How the values were obtained:
Assay in all cases: DTP human tumour cell line panel, 48 h
KM12 colon = test system: KM12 colon
SF-268 CNS = test system: SF-268 CNS
MCF7 breast = test system: MCF7 breast
CCRF-CEM leukemia = test system: CCRF-CEM leukemia
NCI-H522 lung = test system: NCI-H522 lung
UACC-257 melanoma = test system: UACC-257 melanoma
OVCAR-8 ovarian = test system: OVCAR-8 ovarian
HOP-62 NSCLC = test system: HOP-62 NSCLC
NCI-H23 lung = test system: NCI-H23 lung
HT29 colon = test system: HT29 colon
RXF 393 renal = test system: RXF 393 renal
OVCAR-5 ovarian = test system: OVCAR-5 ovarian
MOLT-4 leukemia = test system: MOLT-4 leukemia
SR leukemia = test system: SR leukemia
NCI/ADR-RES ovarian = test system: NCI/ADR-RES ovarian
HL-60(TB) leukemia = test system: HL-60(TB) leukemia
TK-10 renal = test system: TK-10 renal
SF-295 CNS = test system: SF-295 CNS
U251 CNS = test system: U251 CNS
SF-539 CNS = test system: SF-539 CNS
UACC-62 melanoma = test system: UACC-62 melanoma
OVCAR-3 ovarian = test system: OVCAR-3 ovarian
HS 578T breast = test system: HS 578T breast
SN12C renal = test system: SN12C renal
K-562 leukemia = test system: K-562 leukemia
MDA-MB-435 = test system: MDA-MB-435
SK-MEL-28 melanoma = test system: SK-MEL-28 melanoma
BT-549 breast = test system: BT-549 breast
M14 melanoma = test system: M14 melanoma
SNB-75 CNS = test system: SNB-75 CNS
MALME-3M melanoma = test system: MALME-3M melanoma
LOX IMVI melanoma = test system: LOX IMVI melanoma
SK-OV-3 ovarian = test system: SK-OV-3 ovarian
DU-145 prostate = test system: DU-145 prostate
UO-31 renal = test system: UO-31 renal
HOP-92 NSCLC = test system: HOP-92 NSCLC
EKVX NSCLC = test system: EKVX NSCLC
HCT-116 colon = test system: HCT-116 colon
CAKI-1 renal = test system: CAKI-1 renal
RPMI-8226 leukemia = test system: RPMI-8226 leukemia
A549 NSCLC = test system: A549 NSCLC
SK-MEL-5 melanoma = test system: SK-MEL-5 melanoma
SK-MEL-2 melanoma = test system: SK-MEL-2 melanoma
ACHN renal = test system: ACHN renal
786-0 renal = test system: 786-0 renal
IGROV1 ovarian = test system: IGROV1 ovarian
COLO 205 colon = test system: COLO 205 colon
HCC-2998 colon = test system: HCC-2998 colon
A498 renal = test system: A498 renal
SNB-19 CNS = test system: SNB-19 CNS
NCI-H460 lung = test system: NCI-H460 lung
T-47D breast = test system: T-47D breast
HCT-15 colon = test system: HCT-15 colon
OVCAR-4 ovarian = test system: OVCAR-4 ovarian
MDA-MB-231 breast = test system: MDA-MB-231 breast
NCI-H226 lung = test system: NCI-H226 lung
SW-620 colon = test system: SW-620 colon
PC-3 prostate = test system: PC-3 prostate

SMILES: NC(=O)c1cc(I)ccc1NC(=O)/C=C/c1ccccc1Cl
- GI50 (KM12 colon): 442 nM
- TGI (KM12 colon): 4900 nM
- GI50 (SF-268 CNS): 640 nM
- TGI (SF-268 CNS): 31000 nM
- GI50 (MCF7 breast): 333 nM
- TGI (MCF7 breast): 25700 nM
- GI50 (CCRF-CEM leukemia): 363 nM
- GI50 (NCI-H522 lung): 334 nM
- TGI (NCI-H522 lung): 1640 nM
- GI50 (UACC-257 melanoma): 38700 nM
- TGI (UACC-257 melanoma): > 100000 nM
- GI50 (OVCAR-8 ovarian): 3000 nM
- TGI (OVCAR-8 ovarian): > 38800 nM
- GI50 (HOP-62 NSCLC): 4900 nM
- TGI (HOP-62 NSCLC): 33500 nM
- GI50 (NCI-H23 lung): 1070 nM
- TGI (NCI-H23 lung): 19600 nM
- GI50 (HT29 colon): 362 nM
- TGI (HT29 colon): 14500 nM
- GI50 (RXF 393 renal): 375 nM
- TGI (RXF 393 renal): 2180 nM
- GI50 (OVCAR-5 ovarian): 3800 nM
- TGI (OVCAR-5 ovarian): 37200 nM
- GI50 (MOLT-4 leukemia): 765 nM
- GI50 (SR leukemia): 260 nM
- TGI (SR leukemia): 952 nM
- GI50 (NCI/ADR-RES ovarian): 506 nM
- TGI (NCI/ADR-RES ovarian): 4650 nM
- GI50 (HL-60(TB) leukemia): 158 nM
- TGI (HL-60(TB) leukemia): 631 nM
- GI50 (TK-10 renal): 2480 nM
- GI50 (SF-295 CNS): 592 nM
- TGI (SF-295 CNS): 19000 nM
- GI50 (U251 CNS): 578 nM
- TGI (U251 CNS): 19500 nM
- GI50 (SF-539 CNS): 410 nM
- TGI (SF-539 CNS): 2830 nM
- GI50 (UACC-62 melanoma): 312 nM
- TGI (UACC-62 melanoma): 48700 nM
- GI50 (OVCAR-3 ovarian): 271 nM
- TGI (OVCAR-3 ovarian): 638 nM
- GI50 (HS 578T breast): 340 nM
- TGI (HS 578T breast): 2190 nM
- GI50 (SN12C renal): 1320 nM
- TGI (SN12C renal): 36700 nM
- GI50 (K-562 leukemia): 313 nM
- TGI (K-562 leukemia): 3430 nM
- GI50 (MDA-MB-435): 204 nM
- TGI (MDA-MB-435): 578 nM
- GI50 (SK-MEL-28 melanoma): 374 nM
- TGI (SK-MEL-28 melanoma): 21800 nM
- GI50 (BT-549 breast): 816 nM
- TGI (BT-549 breast): 94700 nM
- GI50 (M14 melanoma): 621 nM
- TGI (M14 melanoma): 24800 nM
- GI50 (SNB-75 CNS): 995 nM
- TGI (SNB-75 CNS): 25300 nM
- GI50 (MALME-3M melanoma): 211 nM
- TGI (MALME-3M melanoma): 17600 nM
- GI50 (LOX IMVI melanoma): 1820 nM
- TGI (LOX IMVI melanoma): 98700 nM
- GI50 (SK-OV-3 ovarian): 529 nM
- TGI (SK-OV-3 ovarian): 14900 nM
- GI50 (DU-145 prostate): 837 nM
- TGI (DU-145 prostate): 5640 nM
- GI50 (UO-31 renal): 1790 nM
- TGI (UO-31 renal): 31800 nM
- GI50 (HOP-92 NSCLC): 7220 nM
- TGI (HOP-92 NSCLC): 36400 nM
- GI50 (EKVX NSCLC): 1330 nM
- TGI (EKVX NSCLC): > 69000 nM
- GI50 (HCT-116 colon): 465 nM
- TGI (HCT-116 colon): 11900 nM
- GI50 (CAKI-1 renal): 405 nM
- TGI (CAKI-1 renal): 3780 nM
- GI50 (RPMI-8226 leukemia): 504 nM
- TGI (RPMI-8226 leukemia): 4660 nM
- GI50 (A549 NSCLC): 1180 nM
- TGI (A549 NSCLC): 25200 nM
- GI50 (SK-MEL-5 melanoma): 366 nM
- TGI (SK-MEL-5 melanoma): 13000 nM
- GI50 (SK-MEL-2 melanoma): 628 nM
- TGI (SK-MEL-2 melanoma): 30100 nM
- GI50 (ACHN renal): 2440 nM
- TGI (ACHN renal): > 73600 nM
- GI50 (786-0 renal): 770 nM
- TGI (786-0 renal): 20000 nM
- GI50 (IGROV1 ovarian): 352 nM
- TGI (IGROV1 ovarian): 16900 nM
- GI50 (COLO 205 colon): 651 nM
- TGI (COLO 205 colon): 5700 nM
- GI50 (HCC-2998 colon): 969 nM
- TGI (HCC-2998 colon): 5610 nM
- GI50 (A498 renal): 483 nM
- TGI (A498 renal): 8010 nM
- GI50 (SNB-19 CNS): 869 nM
- TGI (SNB-19 CNS): > 47200 nM
- GI50 (NCI-H460 lung): 413 nM
- TGI (NCI-H460 lung): 4700 nM
- GI50 (T-47D breast): 3130 nM
- TGI (T-47D breast): > 90800 nM
- GI50 (HCT-15 colon): 657 nM
- TGI (HCT-15 colon): > 68300 nM
- GI50 (OVCAR-4 ovarian): 2260 nM
- TGI (OVCAR-4 ovarian): 67700 nM
- GI50 (MDA-MB-231 breast): 1630 nM
- TGI (MDA-MB-231 breast): 31900 nM
- GI50 (NCI-H226 lung): 1610 nM
- TGI (NCI-H226 lung): > 60600 nM
- GI50 (SW-620 colon): 462 nM
- TGI (SW-620 colon): > 39600 nM
- GI50 (PC-3 prostate): 572 nM
- TGI (PC-3 prostate): > 35400 nM
